Assay results taken from patent US20260209152A1, “Substituted Hydroxystilbene Compounds and Derivatives, Synthesis and Uses Thereof” (Kynan Duke IP, LLC, priority 2019, published 2026).
Like-named read-outs stand apart in the source and are kept apart here.

Experiments:
Assay in all cases: CellTiter Glo cell viability assay
Assay type in all cases: cell-based, human
Bladder J82 = conditions: for IC50: Homo sapiens, 72 h, 3 Days of treatment, 18 2-fold dilutions 5-0.00003 μM
In short: (§1)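 Cells seeded at 1.7*10^3/well in quadruplicate; compounds at 18 two-fold dilutions from 5 μM (0.000038146-5 μM), or at 1, 2, 5, 10 and 20 μM. CellTiter Glo luminescence read on days 1, 3 and 5 after treatment. IC50 by nonlinear regression of luminescence versus log dose.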

Bladder RT-112 = conditions: for IC50: Homo sapiens
In short: as §1

Bladder TCCSUP = conditions: for IC50: Homo sapiens, TCC-SUP, 72 h, 3 Days of treatment, 18 2-fold dilutions 5-0.00003 μM
In short: as §1

Bladder UMUC-14 = conditions: for IC50: Homo sapiens, UMUC14, 72 h, 3 Days of treatment, 18 2-fold dilutions 5-0.00003 μM
In short: as §1

Breast MDA-MB-231 = conditions: for IC50: Homo sapiens
In short: as §1

[1] = tested on: Connective Tissue Sarcoma HT-1080; conditions: for IC50: Homo sapiens, HT-1080, 72 h, 3 Days of treatment, 18 2-fold dilutions 5-0.00003 μM
In short: as §1

Fibrosarcomas SW 684 = conditions: for IC50: Homo sapiens, SW684, 72 h, 3 Days of treatment, 18 2-fold dilutions 5-0.00003 μM
In short: as §1

Kidney 786-O = conditions: for IC50: Homo sapiens, 786-0, 72 h, 3 Days of treatment, 18 2-fold dilutions 5-0.00003 μM
In short: as §1

Kidney ACHN = conditions: for IC50: Homo sapiens, ACHN
In short: as §1

Kidney HTB-45 = conditions: for IC50: Homo sapiens, 72 h, 3 Days of treatment, 18 2-fold dilutions 5-0.00003 μM
In short: as §1

Kidney SK-NEP-1 = conditions: for IC50: Homo sapiens, SK-NEP-1, 72 h, 3 Days of treatment, 18 2-fold dilutions 5-0.00003 μM
In short: as §1

Liposarcoma 93T449 = conditions: for IC50: Homo sapiens, 72 h, 3 Days of treatment, 18 2-fold dilutions 5-0.00003 μM
In short: as §1

Liver JHH-7 = conditions: for IC50: Homo sapiens, JHH7, 72 h, 3 Days of treatment, 18 2-fold dilutions 5-0.00003 μM
In short: as §1

Liver SNU-475 = conditions: for IC50: Homo sapiens, SNU-475, 72 h, 3 Days of treatment, 18 2-fold dilutions 5-0.00003 μM
In short: as §1

Lung A549 = conditions: for IC50: Homo sapiens, A549, 72 h, 3 Days of treatment, 18 2-fold dilutions 5-0.00003 μM
In short: as §1

Lung BEAS-2B = conditions: for IC50: Homo sapiens, BEAS-2B, 72 h, 3 Days of treatment, 18 2-fold dilutions 5-0.00003 μM
In short: as §1

Lung NCI-H661 = conditions: for IC50: Homo sapiens, NCI-H661, 72 h, 3 Days of treatment, 18 2-fold dilutions 5-0.00003 μM
In short: as §1

Osteosarcomas Hs888.T = conditions: for IC50: Homo sapiens, 72 h, 3 Days of treatment, 18 2-fold dilutions 5-0.00003 μM
In short: as §1

Osteosarcomas MG3 = conditions: for IC50: Homo sapiens, 72 h, 3 Days of treatment, 18 2-fold dilutions 5-0.00003 μM
In short: as §1

Osteosarcomas T1-73 = conditions: for IC50: Homo sapiens, 72 h, 3 Days of treatment, 18 2-fold dilutions 5-0.00003 μM
In short: as §1

Rhabomyosarcoma Hs 729 = conditions: for IC50: Homo sapiens, 72 h, 3 Days of treatment, 18 2-fold dilutions 5-0.00003 μM
In short: as §1

Tongue SCC-15 = conditions: for IC50: Homo sapiens, SCC-15, 72 h, 3 Days of treatment, 18 2-fold dilutions 5-0.00003 μM
In short: as §1

Tongue SCC-9 = conditions: for IC50: Homo sapiens, SCC-9, 72 h, 3 Days of treatment, 18 2-fold dilutions 5-0.00003 μM
In short: as §1

[2] = RT-112, 72 h, 3 Days of treatment, 18 2-fold dilutions 5-0.00003 μM, read-out: Average IC50
[3] = RT-112, 72 h, Table 4: 3 Days of treatment, 18 2-fold dilutions 5-0.00003 μM, Average (1, 8) or single Exp A-D, read-out: IC50
[4] = RT-112, 120 h, Day 5 upon drug treatment, 10 dosages 0.0001-20 μM (Compound 8: 18 dosages 0.000038146 to 5 μM), read-out: IC50
[5] = MDA-MB-231, 72 h, 3 Days of treatment, 18 2-fold dilutions 5-0.00003 μM, read-out: Average IC50
[6] = MDA-MB-231, 120 h, Day 5 upon drug treatment, 10 dosages 0.0001-20 μM (Compound 8: 18 dosages 0.000038146 to 5 μM), read-out: IC50
[7] = 72 h, 3 Days of treatment, 18 2-fold dilutions 5-0.00003 μM, read-out: Average IC50
[8] = 72 h, Table 4: 3 Days of treatment, 18 2-fold dilutions 5-0.00003 μM, Average (1, 8) or single Exp A-D, read-out: IC50
[9] = 120 h, Day 5 upon drug treatment, 10 dosages 0.0001-20 μM (Compound 8: 18 dosages 0.000038146 to 5 μM), read-out: IC50
[10] = IC50 of 1 [KYN-001] vs 8 [KYN-119], 3 Days

Structure (SMILES): COc1cc(/C=C/c2cc(O)cc(OC)c2CC=C(C)C)ccc1O [Compound 1, (E)-3-(4-hydroxy-3-methoxystyryl)-5-methoxy-4-(3-methylbut-2-en-1-yl)phenol]
- IC50 (Bladder J82): 184 nM
- IC50 (Bladder RT-112; [2]): 52.9 nM
- IC50 (Bladder RT-112; RT-112, 72 h, Day 3 upon drug treatment, 10 dosages 0.0001-20 μM, read-out: IC50): 105 nM
- IC50 (Bladder RT-112; [3]): 27 nM
- IC50 (Bladder RT-112; [4]): 28.7 nM
- IC50 (Bladder TCCSUP): 294 nM
- IC50 (Bladder UMUC-14): 1160 nM
- IC50 (Breast MDA-MB-231; [5]): 32.6 nM
- IC50 (Breast MDA-MB-231; MDA-MB-231, 72 h, Day 3 upon drug treatment, 10 dosages 0.0001-20 μM, read-out: IC50): 29.3 nM
- IC50 (Breast MDA-MB-231; [6]): 57.3 nM
- IC50 [1]: 36.7 nM
- IC50 (Fibrosarcomas SW 684): 55.2 nM
- IC50 (Kidney 786-O): 334 nM
- IC50 (Kidney ACHN; [7]): 494 nM
- IC50 (Kidney ACHN; [8]): 496 nM
- IC50 (Kidney ACHN; [9]): 89.7 nM
- IC50 (Kidney HTB-45): 1730 nM
- IC50 (Kidney SK-NEP-1): 158 nM
- IC50 (Liposarcoma 93T449): 55.5 nM
- IC50 (Liver JHH-7): 696 nM
- IC50 (Liver SNU-475): 239 nM
- IC50 (Lung A549): 163 nM
- IC50 (Lung BEAS-2B): 76.4 nM
- IC50 (Lung NCI-H661): 36.6 nM
- IC50 (Osteosarcomas Hs888.T): 210 nM
- IC50 (Osteosarcomas MG3): 35.9 nM
- IC50 (Osteosarcomas T1-73): 804 nM
- IC50 (Rhabomyosarcoma Hs 729): 383 nM
- IC50 (Tongue SCC-15): 17 nM
- IC50 (Tongue SCC-9): 181 nM

Structure (SMILES): CCOc1cc(O)cc(/C=C/c2ccc(O)c(OC)c2)c1CC=C(C)C [Compound 8, (E)-3-Ethoxy-5-(4-hydroxy-3-methoxystyryl)-4-(3-methylbut-2-en-1-yl)phenol]
- IC50 (Bladder J82): 46.5 nM
- Fold IC50 (Bladder J82; [10]): 4.0
- IC50 (Bladder RT-112; [2]): 3.63 nM
- IC50 (Bladder RT-112; [3]): 4.09 nM
- IC50 (Bladder RT-112; [4]): ~5.65 nM
- Fold IC50 (Bladder RT-112; [10]): 15
- IC50 (Bladder TCCSUP): 112 nM
- Fold IC50 (Bladder TCCSUP; [10]): 2.6
- IC50 (Bladder UMUC-14): 563 nM
- Fold IC50 (Bladder UMUC-14; [10]): 2.1
- IC50 (Breast MDA-MB-231; [5]): 8.48 nM
- IC50 (Breast MDA-MB-231; [6]): ~0.00253 nM
- Fold IC50 (Breast MDA-MB-231; [10]): 3.8
- IC50 [1]: 17.3 nM
- Fold IC50 [1, 10]: 2.1
- IC50 (Fibrosarcomas SW 684): 4.63 nM
- Fold IC50 (Fibrosarcomas SW 684; [10]): .12
- IC50 (Kidney 786-O): 64.8 nM
- Fold IC50 (Kidney 786-O; [10]): 5.1
- IC50 (Kidney ACHN; [7]): 10.4 nM
- IC50 (Kidney ACHN; [8]): 9.8 nM
- IC50 (Kidney ACHN; [9]): ~0.0135 nM
- Fold IC50 (Kidney ACHN; [10]): 48
- IC50 (Kidney HTB-45): 463 nM
- Fold IC50 (Kidney HTB-45; [10]): 3.7
- IC50 (Kidney SK-NEP-1): 17.8 nM
- Fold IC50 (Kidney SK-NEP-1; [10]): 8.9
- IC50 (Liposarcoma 93T449): 15.1 nM
- Fold IC50 (Liposarcoma 93T449; [10]): 3.7
- IC50 (Liver JHH-7): 519 nM
- Fold IC50 (Liver JHH-7; [10]): 1.3
- IC50 (Liver SNU-475): 32.4 nM
- Fold IC50 (Liver SNU-475; [10]): 7.4
- IC50 (Lung A549): 30.9 nM
- Fold IC50 (Lung A549; [10]): 5.3
- IC50 (Lung BEAS-2B): 15 nM
- Fold IC50 (Lung BEAS-2B; [10]): 5.1
- IC50 (Lung NCI-H661): 11.5 nM
- Fold IC50 (Lung NCI-H661; [10]): 3.2
- IC50 (Osteosarcomas Hs888.T): 26.1 nM
- Fold IC50 (Osteosarcomas Hs888.T; [10]): 8.1
- IC50 (Osteosarcomas MG3): 6.88 nM
- Fold IC50 (Osteosarcomas MG3; [10]): 5.2
- IC50 (Osteosarcomas T1-73): 3.93 nM
- Fold IC50 (Osteosarcomas T1-73; [10]): 205
- IC50 (Rhabomyosarcoma Hs 729): 64.9 nM
- Fold IC50 (Rhabomyosarcoma Hs 729; [10]): 5.9
- IC50 (Tongue SCC-15): 14.9 nM
- Fold IC50 (Tongue SCC-15; [10]): 1.1
- IC50 (Tongue SCC-9): 75.5 nM
- Fold IC50 (Tongue SCC-9; [10]): 2.4
